From patent US11015216B2, “Substituted imidazo[1,2-a]pyrazines as luciferase substrates” (PROMEGA CORPORATION, priority 2016, dated 2021)

Columns and labels:
HeLa cells = assay: Cell viability assay, HeLa; type: cell-based; settings: 24 h incubation, serial dilution, FIGS. 3 and 4
Protocol: (§1) Cell Culture: HeLa and HEK293 cells were maintained in DMEM containing 0.3 mg/ml glutamine, 100 IU/ml penicillin, 100 μg/ml streptomycin, and 10% fetal calf serum at 37° C. in 5% CO2. Dulbecco's modified eagle medium (DMEM), Opti-MEM, Penicillin/Streptomycin, and Trypsin-EDTA were purchased from Life Technologies (Carlsbad). Fetal calf serum (FBS) was purchased from HyClone (GE Healthcare). Microtiter plates were purchased from Corning.
(§2) Cell viability assay: HEK293 or HeLa cells were plated in […] growth medium (DMEM supplemented with 10% FBS) into wells of white, TC-treated, 96-well plates at a density of 10000 cells per well and incubated for 24 h. The growth medium was then replaced with 100 μl Opti-MEM medium, which contained a serial dilution of the indicated compound. Changes in cell viability were then measured after incubation for 24 h using the […]® Green cell viability assay (Promega) according to manufacturer instructions. All luminescent measurements were performed on a GLOMAX® Discover multimode plate reader (Promega).

luciferase = assay: Additional luciferase substrate assay, compared to known analogue C-1 (Table 3); type: biochemical; settings: relative to C-1 (=1)
Protocol: (§3) Luminescence Assay Procedure: Each compound to be screened was dissolved in DMSO (5 mM) and then further diluted to 100 uM in NANO-GLOR Luciferase Assay Buffer. Each diluted substrate was then combined in equal volumes with purified NanoLuc® Luciferase diluted into CO2 independent media+10% FBS. Initial light output for each substrate was measured in a GloMax®-Multi+ luminometer three minutes after substrate addition and then at five minute intervals as a means to determine signal half-life.
The compounds of formula (I) were also evaluated for their ability to be luciferase substrates in an additional assay.

HEK293 cells = assay: Cell viability assay, HEK293; type: cell-based; settings: Hek293, 24 h incubation, serial dilution; FIGS. 5 and 6
Protocol: as §1, §2

NanoLuc® Luciferase = NanoLuc® Luciferase (Oplophorus gracilirostris, UniProt Q9GV45, A31E/A60N/A81I/F95D/I117V/K70R/L54V/L99Q/M102K/N193R/P142E/Q151K/Q38R/Q45L/V71I/Y165I); type: biochemical; settings: ratio to coelenterazine (=1)
Sequence of NanoLuc® Luciferase (Q9GV45 other isoform, or with tags, fused parts or gaps with the stated changes): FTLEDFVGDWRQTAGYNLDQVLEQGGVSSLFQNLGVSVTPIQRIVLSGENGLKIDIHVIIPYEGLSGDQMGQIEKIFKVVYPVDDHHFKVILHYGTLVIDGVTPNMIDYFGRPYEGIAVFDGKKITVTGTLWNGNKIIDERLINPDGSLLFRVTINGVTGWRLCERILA
Protocol: as §3
A subset of the synthesized coelenterazine analogues (compounds of formula (I)) were evaluated for their suitability as luciferase substrates. NANOLUC® luciferase was employed for the screening because it is a small (19 kDa), stable, and particularly bright enzyme.

With `Cc1ccc(Cc2nc3c(Cc4ccccc4)[nH]c(-c4ccccc4)cn-3c2=O)cn1` [Compound 76] the “compound-induced cellular toxicity compared to coelenterazine” value (HeLa cells) was “notably reduced toxicity”, the “RLU (@100 uM)” value (luciferase) was 0.04 and the “compound-induced cellular toxicity compared to coelenterazine” value (HEK293 cells) was “notably reduced toxicity”. The “I (relative light units, ratio in comparison to native coelenterazine)” value (NanoLuc® Luciferase; initial light output three minutes after substrate addition) was 1.666 and the “Half-life (signal half-life, ratio in comparison to native coelenterazine)” value (NanoLuc® Luciferase; read at five minute intervals) was 1.14.
